{"source": "patent US6436630B1", "about": "“Method for testing the toxicity of chemical substances using gastropods” (priority 1998, dated 2002)", "key": {"[1]": {"system": "foot mucosa of slugs (species Arion)", "assay": "Slug mucosal toxicity test, Example 1 (15 min daily treatment, five days)", "assay_type": "in vivo", "settings": "in vivo", "description": "Initially, the slugs are kept on a culture under controlled conditions of temperature and humidity until they have reached a stable body weight. The purpose of achieving a stable body weight is to improve the reproducibility of the results, particularly as the release of substances from the slugs may conveniently be measured in terms of the body weight thereof. The slugs are then isolated from the culture and placed in a vented plastic box lined with moist paper towel and placed at 95% relative humidity at 20° C. seven days before the start of an experiment. The slugs were not bred in any particular way, i.e. they were wild slugs. It is anticipated that even more accurate and reproducible results can be obtained by selective breeding of the slugs, although as shown by the test results this is not a necessary requirement of the present invention to obtain accurate and useful data.\nThe test procedure is simple and rapid. The chemical substance to be tested is applied directly to the mucosal membrane of a slug, e.g. to the foot, by placing the slug individually in a petri dish containing the test substance. Slugs treated with phosphate buffered saline are used as a negative control. As a positive control slugs treated with a known toxic substance, benzalkonium chloride, were used.\nBecause the mucosal epithelium of interest is located at the outside of the slug the effect of substances can be easily observed. […] This can also be simply measured by weighing the petri dish before and after the treatment of the slugs with the chemical substance (with the slugs removed in each case). Additionally an indirect response to epithelial damage caused by a chemical substance may be determined by the reduction of the body weight of the slugs due to the leakage of haemolymphatic fluids through the damaged foot surface.\nAfter the treatment the slugs are transferred individually to a fresh petri dish containing phosphate buffered saline. After a suitable exposure time, e.g. 1 hour the phosphate buffered saline is collected and analysed for the presence of proteins and/or enzymes, e.g. lactate dehydrogenase and/or alkaline phosphatase, or other marker substances released from the foot or epithelium of the slug, for example membrane associated components such as phospholipids or cholesterol. This procedure can be repeated after periods of several hours in order to determine the reversibility of the cell damage caused by the test chemical substance. The concentration or amount of the chemical substance to be tested can be changed and the influence of the concentration can be easily examined. The exposure time can also be changed if required. The slugs can be treated during several successive days in order to investigate the subchronical effect of substances on the foot mucosa.\nSeven days before the start of the experiment the slugs were isolated in a plastic box lined with moist paper towel and placed at 95% relative humidity at 20° C. As test substances didecanyol-L-α-phosphatidylcholine (DDPC) and sodium deoxycholate (SDC) were selected. Benzalkonium chloride (1% w/v), SDC (1% w/v) and DDPC (1%, w/v) were prepared in phosphate buffered saline (PBS, pH 7.4). […] During the test the slugs are preferably kept in a generally calm and normal state and are not subjected to mechanical vibrations or mechanical or electrical disturbances which may affect mucus production.\nThe enzymes (lactate dehydrogenase (LDH) and alkaline phosphatase (ALP)) and total protein released into the PBS were determined. The slugs were weighed before and after the incubation period to determine the body weight changes. The mucus production was measured by weighing the petri dishes before and after the treatment with a test substance. The results are shown in Table 1 and shown graphically in FIGS. 1 to 5."}, "[2]": {"system": "foot mucosa of slugs of species Arion", "assay": "Slug mucosal toxicity test, Example 2 (15 min daily treatment, four days)", "settings": "for % WL, weight loss as reduction in body weight caused by the 15 minutes of treatment / % MP, mucus production as % of the body weight at the start of the day before the treatment: 1% w/v in PBS; for % MP, mucus production as % of the body weight at the start of the day before the treatment / ALP released into PBS / LDH released into PBS / Protein released into PBS: 15 min; for ALP released into PBS / LDH released into PBS / Protein released into PBS: 1% w/v, total mean of 3 samples/day per slug", "protocol": "As test substance a β-blocking agent propranolo HCl (1% w/v) was used. Benzalkonium chloride (1% w/v) and Propranolol (1% w/v) were prepared in PBS (pH 7.4). The slugs were daily incubated during 15 min with the test solution during four days. After the incubation period the slugs were placed on 500 μL PBS in a petri dish. The PBS was sampled every hour and refreshed with 500 μL PBS for 3 hours after the treatment.\nThe enzymes (LDH, ALP) and the total protein released into the PBS were determined. The change in body weight and the mucus production caused by the treatment were examined."}, "[3]": {"system": "foot mucosa of slugs of species Arion", "assay_type": "in vivo", "settings": "in vivo"}, "[4]": {"system": "foot mucosa of slugs of species Limax", "assay_type": "in vivo", "settings": "in vivo", "protocol": "Slugs of the species Limax are terrestial slugs have lungs and also a small internal shell. As test substances hydroxypropyl-β-cyclodextrin (HPβCD), sodium tauro-24,25-dihdrofiisidate (STDHF) and sodium deoxycholate were selected. Benzalkonium chloride (1% w/v), HPβCD (5% w/v), STDHF (1% w/v) and SDC (1% w/v) were prepared in phosphate buffered saline (PBS, pH 7.4).\nThe enzymes lactate dehydrogenase (LDH) and alkaline phosphatase (ALP) and total protein released into the PBS were determined. The change in body weight and mucus production caused by the treatment were examined."}}, "data": [{"substance": "Benzalkonium chloride", "values": [{"measurement": "membrane damage (in words)", "setting": "[1]", "value": "severe membrane damage"}, {"measurement": "% WL, weight loss as reduction in body weight caused by the 15 minutes of treatment", "setting": "[2]; day 1", "value": 7.17, "unit": "%"}, {"measurement": "% MP, mucus production as % of the body weight at the start of the day before the treatment", "setting": "[2]; day 1", "value": 3.28, "unit": "%"}, {"measurement": "ALP released into PBS", "setting": "[2]; day 1", "value": 0.56, "unit": "U/L"}, {"measurement": "LDH released into PBS", "setting": "[2]; day 1", "value": 1.92, "unit": "U/L"}, {"measurement": "Protein released into PBS", "setting": "[2]; day 1", "value": 8.36, "unit": "μg/30 μL"}, {"measurement": "% WL, weight loss as reduction in body weight caused by the 15 minutes of treatment", "setting": "[2]; day 2", "value": 4.32, "unit": "%"}, {"measurement": "% MP, mucus production as % of the body weight at the start of the day before the treatment", "setting": "[2]; day 2", "value": 2.75, "unit": "%"}, {"measurement": "ALP released into PBS", "setting": "[2]; day 2", "value": 3.42, "unit": "U/L"}, {"measurement": "LDH released into PBS", "setting": "[2]; day 2", "value": 6.27, "unit": "U/L"}, {"measurement": "Protein released into PBS", "setting": "[2]; day 2", "value": 4.08, "unit": "μg/30 μL"}, {"measurement": "% WL, weight loss as reduction in body weight caused by the 15 minutes of treatment", "setting": "[2]; day 3", "value": 2.87, "unit": "%"}, {"measurement": "% MP, mucus production as % of the body weight at the start of the day before the treatment", "setting": "[2]; day 3", "value": 2.35, "unit": "%"}, {"measurement": "ALP released into PBS", "setting": "[2]; day 3", "value": 5.64, "unit": "U/L"}, {"measurement": "LDH released into PBS", "setting": "[2]; day 3", "value": 8.11, "unit": "U/L"}, {"measurement": "Protein released into PBS", "setting": "[2]; day 3", "value": 11.69, "unit": "μg/30 μL"}, {"measurement": "% WL, weight loss as reduction in body weight caused by the 15 minutes of treatment", "setting": "[2]; day 4", "value": 3.61, "unit": "%"}, {"measurement": "% MP, mucus production as % of the body weight at the start of the day before the treatment", "setting": "[2]; day 4", "value": 3.09, "unit": "%"}, {"measurement": "ALP released into PBS", "setting": "[2]; day 4", "value": 15.59, "unit": "U/L"}, {"measurement": "LDH released into PBS", "setting": "[2]; day 4", "value": 48.65, "unit": "U/L"}, {"measurement": "Protein released into PBS", "setting": "[2]; day 4", "value": 11.79, "unit": "μg/30 μL"}, {"measurement": "membrane damage (in words)", "setting": "[3]", "value": "severe membrane damage"}, {"measurement": "ranking order of increasing toxicity", "setting": "[3]", "value": "PBS, 5% HPβCD<1% STDHF<1% SDC and 1% BAC"}, {"measurement": "reduction in body weight to % of the initial weight", "setting": "[3]", "value": "about 50%"}, {"measurement": "membrane damage (in words)", "setting": "[4]", "value": "severe membrane damage"}, {"measurement": "ranking order of increasing toxicity", "setting": "[4]", "value": "PBS, 5% HPβCD<1% STDHF<1% SDC and 1% BAC"}, {"measurement": "reduction in body weight to % of the initial weight", "setting": "[4]", "value": "about 50%"}]}]}
